Measurements published in publication PMC3424241, “The Octadecaneuropeptide ODN Protects Astrocytes against Hydrogen Peroxide-Induced Apoptosis via a PKA/MAPK-Dependent Mechanism” (PLoS ONE, 2012).

Columns and labels:
Bax = Bax mRNA level, quantitative RT-PCR; assay type: cell-based, rat; conditions: ODN 0.1 nM
Protocol: (§1) Secondary cultures of rat cortical astrocytes were prepared as previously described [64]with minor modifications. Briefly, cerebral hemispheres from newborn Wistar rats were collected in DMEM/F12 (2∶1; v/v) culture medium supplemented with 2 mM L-glutamine, 1‰ insulin, 5 mM HEPES, 0.4% glucose and 1% of the antibiotic-antimycotic solution. The tissues were dissociated mechanically with a syringe equipped with a 1-mm gauge needle, and filtered through a 100-µm sieve (Falcon, Franklin Lakes, NJ, USA). Dissociated cells were resuspended in culture medium supplemented with 10% FBS, plated in 175-cm^2 flasks (Greiner Bio-one GmbH, Frickenhausen, Germany) and incubated at 37°C in a 5% CO2/[…] atmosphere. When cultures were confluent, astrocytes were isolated by shaking overnight the flasks on an orbital agitator. Adhesive cells were detached by trypsination and preplated for 5 min to discard contaminating microglial cells. Then, the non-adhering astrocytes were harvested and plated on 35-mm hydrophilic surface Petri dishes at a density of 3×10^5 cells/ml. […]
Cultured cells were incubated at 37°C for 1 h with fresh serum-free medium in the absence or presence of test substances. […] The amount of Bax and Bcl-2 cDNA in each sample was calculated by the comparative threshold cycle (Ct) method and expressed as 2^exp(−ΔΔCt) using glyceraldehyde-3-phosphate dehydrogenase as an internal control.

[1] = tested on: cAMP formation in astroglial cells (adenylyl cyclase); assay: cAMP production, radioimmunoassay; assay type: cell-based, rat; conditions: ODN 10 pM; 0.1 mM IBMX, 10 min incubation; p<0.001
Protocol: as §1
Cultured cells were pre-incubated for 30 min in serum-free medium containing 0.1 mM IBMX to inhibit phosphodiesterases, and then incubated in the same solution, in the presence or absence of test substances. […] The concentration of cAMP was measured by using a cAMP RIA kit. […]

ERK1 and ERK2 = assay: ERK phosphorylation, Western blot; assay type: cell-based, rat
Protocol: Secondary cultures of rat cortical astrocytes were prepared as previously described [64]with minor modifications. Briefly, cerebral hemispheres from newborn Wistar rats were collected in DMEM/F12 (2∶1; v/v) culture medium supplemented with 2 mM L-glutamine, 1‰ insulin, 5 mM HEPES, 0.4% glucose and 1% of the antibiotic-antimycotic solution. The tissues were dissociated mechanically with a syringe equipped with a 1-mm gauge needle, and filtered through a 100-µm sieve (Falcon, Franklin Lakes, NJ, USA). Dissociated cells were resuspended in culture medium supplemented with 10% FBS, plated in 175-cm^2 flasks (Greiner Bio-one GmbH, Frickenhausen, Germany) and incubated at 37°C in a 5% CO2/[…] atmosphere. When cultures were confluent, astrocytes were isolated by shaking overnight the flasks on an orbital agitator. Adhesive cells were detached by trypsination and preplated for 5 min to discard contaminating microglial cells. Then, the non-adhering astrocytes were harvested and plated on 35-mm hydrophilic surface Petri dishes at a density of 3×10^5 cells/ml. For measurement of cell survival, caspase-3 activity and mitochondrial activity, cells were plated in hydrophilic surface 24-well plates at a density of 8×10^4 cells/ml. The cells were incubated at 37°C in a humid atmosphere (5% CO2). After 5 days (DIV5), more than 99% of the cells were labeled with antibodies against glial fibrillary acidic protein [65]. All experiments were performed on 5- to 7-day-old secondary cultures.
Cultured cells were incubated at 37°C for 1 h with fresh serum-free medium in the absence or presence of test substances. Total proteins were extracted with lysis buffer containing 1% Triton X-100, 50 mM Tris/HCl and 10 mM EDTA. After centrifugation (20,000 g, 4°C, 15 min), the proteins contained in the supernatant were precipitated by addition of ice-cold 10% TCA. The extract was centrifuged (15,000 g, 4°C, 15 min) and washed three times with alcohol/ether. The pellet was denatured (100°C, 5 min) in 50 mM Tris/HCl (pH 7.5) containing 20% glycerol, 0.7 M 2-mercaptoethanol, 0.004% bromophenol blue and 3% SDS, and then migrated on a 10% SDS-polyacrylamide gel electrophoresis (PAGE). After separation, proteins were electrically transferred onto nitrocellulose membrane (Amersham, Les Ulis, France). […] Signal was quantified using an image analysis system (Biocom, Les Ulis, France).

cultured rat astrocytes = assay: Cell survival after H2O2, FDA fluorescence; assay type: cell-based
Protocol: Secondary cultures of rat cortical astrocytes were prepared as previously described [64]with minor modifications. Briefly, cerebral hemispheres from newborn Wistar rats were collected in DMEM/F12 (2∶1; v/v) culture medium supplemented with 2 mM L-glutamine, 1‰ insulin, 5 mM HEPES, 0.4% glucose and 1% of the antibiotic-antimycotic solution. The tissues were dissociated mechanically with a syringe equipped with a 1-mm gauge needle, and filtered through a 100-µm sieve (Falcon, Franklin Lakes, NJ, USA). […] When cultures were confluent, astrocytes were isolated by shaking overnight the flasks on an orbital agitator. Adhesive cells were detached by trypsination and preplated for 5 min to discard contaminating microglial cells. Then, the non-adhering astrocytes were harvested and plated on 35-mm hydrophilic surface Petri dishes at a density of 3×10^5 cells/ml. […] The cells were incubated at 37°C in a humid atmosphere (5% CO2). […] All experiments were performed on 5- to 7-day-old secondary cultures.
Cultured cells were incubated at 37°C with fresh serum-free culture medium in the absence or presence of H2O2 and/or ODN for 1 h. Cells were then incubated for 10 min at 37°C with 0.3 µg/ml calcein-AM (producing green fluorescence in living cells), rinsed twice with culture medium without probe and examined on an inverted microscope (Leica, Heidelberg, Germany) equipped with a double pass filter.
For quantification of surviving astrocytes, cells were incubated for 8 min with 15 µg/ml FDA-AM, rinsed twice with phosphate-buffered saline (PBS) and lysed with a Tris/HCl solution containing 1% sodium dodecyl sulfate (SDS). Fluorescence was measured with excitation at 485 nm and emission at 538 nm, using a microplate reader (Bio-Tek FLx 800).

ODN: octadecaneuropeptide, endozepine derived from diazepam-binding inhibitor; endogenous ligand of central-type benzodiazepine and metabotropic receptors; synthesized by Fmoc procedure (QATVGDVNTDRPGLLDLK; Octadecaneuropeptide; UniProt P11030 34-51, looked up)
effect on H2O2-induced increase of Bax mRNA levels (Bax; 10 min pre-incubation, 1 h 300 µM H2O2): totally prevented the increase of Bax mRNA levels induced by H2O2
effect on Bax mRNA levels, peptide alone (Bax; 1 h, RT-PCR): had no effect on Bax mRNA levels
maximum stimulation of cAMP formation [1]: 179 % over control
ERK phosphorylation (ERK1 and ERK2; ODN 0.1 nM, after 60 min of treatment, percentages of control): 206%
time to detectable increase of ERK phosphorylation (ERK1 and ERK2; ODN 0.1 nM, time-course): ≤ 20 min
effect on ERK phosphorylation (ERK1 and ERK2; graded ODN 1 fM to 0.1 nM, 1 h, Western blot): concentration-related stimulation of ERK phosphorylation
time-course of protection against H2O2-induced cell injury (cultured rat astrocytes; ODN 0.1 nM, 300 µM H2O2, FDA fluorescence): totally blocked H2O2-induced cell injury during the first 60 min
duration of the protective effect with fresh doses of peptide (cultured rat astrocytes; ODN 0.1 nM, refills of 0.1 nM after 30, 60, 90, 120 and 150 min, 300 µM H2O2): ≥ 150 min
maximum effect (survival) (cultured rat astrocytes; ODN 0.1 nM, 10 min pre-incubation, 1 h 300 µM H2O2, FDA fluorescence): ~95%
time after onset of peptide administration at which the protective action vanished (cultured rat astrocytes; single dose of ODN 0.1 nM, 300 µM H2O2): 180 min
delay of H2O2-induced cell death (cultured rat astrocytes; time-course, ODN 0.1 nM, 300 µM H2O2): approximately 1 h
